# Reference: patent publication EP4763841A1, “PYRIDAZINONE COMPOUND AND USE THEREOF” (Xi'an Xintong Pharmaceutical Research Co., Ltd., priority 2023, dated 2025)
# Entries after “also recorded” stand apart in the source; their conditions may differ.
# Assays:
# [1] = Distribution of compounds in major organs after single gavage administration; format: in vivo, Sprague Dawley rats; details: gavage 5 mg/kg single dose, 1 h and 4 h, SD rats, result in words (FIG. 2)
# Experimental: 0.25-0.3 ml of Systemic blood (jugular vein) was taken at each blood collection point to be added into an EDTA-K2 anticoagulant tube, uniform mixing was performed by gentle inversion, and the obtained mixture was stored on crushed ice for transport. Collection plan: PO blood collection point: 1 h and 4 h after administration. Animals were euthanized, tissues and organs were taken, and livers (0.3-0.5 g of liver was taken at a fixed position of a large lobe of liver), kidneys, and hearts were weighed, placed in 5 ml centrifuge tubes, quick-frozen on dry ice, and cryopreserved at -20°C.
# A solvent (methanol:acetonitrile:water=25:25:50) was added for grinding and homogenization, and this process was performed rapidly by using a tissue grinder.
# A solvent was added to the liver to 3 ml, one large steel ball and one small steel ball were added, and grinding was performed at 50 Hz for 60 s. Vortexing was performed for uniform mixing, and centrifugation was performed at 8000 rpm for 5 min. 0.3 ml of a supernatant was taken, a solvent was added until 3 ml, vortexing was performed for uniform mixing, and centrifugation was performed at 8000 rpm for 5 min. 0.1 ml of a supernatant was taken, 0.2 ml of acetonitrile was added, vortexing was performed for 30 s, and centrifugation was performed at 10000 rpm for 5 min. A supernatant was taken and sent for testing to analyze the drug content. […]
# [2] = Comparison of compound metabolites by human liver microsome incubation (LC-MS/MS); format: in vitro ADME; details: 10 µM compound, human liver microsome 1.0 mg/mL, β-NADPH 1.0 mM, 37°C, 60 min
# Experimental: The purpose of this experiment was to evaluate the comparison of the content of major metabolites of human liver microsome incubated compounds.
# Sample treatment: a sample was precipitated with acetonitrile (ACN) containing 0.1% formic acid in a ratio of 1:2, and further centrifuged. A supernatant was dried with a nitrogen flow. A residue was reconstituted in […] of 10% ACN and 90% H2O containing 0.1% formic acid. […] of the reconstituted material was injected into an LC-MS/MS system for analysis.
structure (smiles),measurement,setting,value
[2H]C([2H])([2H])C(c1c(C)c(Oc2c(Cl)cc(-n3nc(CF)c(=O)[nH]c3=O)cc2Cl)n[nH]c1=O)C([2H])([2H])[2H] [Compound 6],liver distribution,[1],significant liver distribution advantage over Resmetirom and the compound X1; also recorded: significant liver distribution advantage over Resmetirom and a compound X1
same,Monooxidized metabolite percent content (%),[2],3.0%
same,Monooxidized metabolite percent content (%),[2]; listed as compound 6,3%
